From US9822130B2, “Triazolo-pyrazinyl derivatives useful as soluble guanylate cyclase activators” (Merck Sharp & Dohme Corp., priority 2014, dated 2017) come the findings set out here.

The assay deals with T1, sGC α1/β1 heterodimer stably expressed in CHO-K1 cell line (CHO-K1/sGC) (Homo sapiens, UniProt Q02108+Q02153).
T1 construct: expressed in transfected cells
T1 sequence (Q02108 1-690): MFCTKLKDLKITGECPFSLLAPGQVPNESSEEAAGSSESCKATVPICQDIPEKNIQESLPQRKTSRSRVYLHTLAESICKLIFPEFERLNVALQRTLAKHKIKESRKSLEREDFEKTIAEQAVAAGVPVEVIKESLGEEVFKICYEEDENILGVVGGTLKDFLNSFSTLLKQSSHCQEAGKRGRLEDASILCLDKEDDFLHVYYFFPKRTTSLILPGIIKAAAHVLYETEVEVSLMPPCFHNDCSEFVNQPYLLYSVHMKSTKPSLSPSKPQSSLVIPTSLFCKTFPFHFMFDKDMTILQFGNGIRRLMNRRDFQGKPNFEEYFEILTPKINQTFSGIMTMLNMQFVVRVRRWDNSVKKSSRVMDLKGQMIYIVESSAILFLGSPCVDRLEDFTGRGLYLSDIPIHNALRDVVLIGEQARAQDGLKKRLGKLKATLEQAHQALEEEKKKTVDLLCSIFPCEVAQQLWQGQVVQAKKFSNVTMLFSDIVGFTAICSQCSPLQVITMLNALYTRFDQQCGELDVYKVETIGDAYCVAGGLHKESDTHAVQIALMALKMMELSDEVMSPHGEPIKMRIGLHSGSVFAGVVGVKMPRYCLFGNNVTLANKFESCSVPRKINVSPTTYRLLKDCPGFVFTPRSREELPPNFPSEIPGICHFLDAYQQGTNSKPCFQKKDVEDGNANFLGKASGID
T1 sequence (Q02153 1-619): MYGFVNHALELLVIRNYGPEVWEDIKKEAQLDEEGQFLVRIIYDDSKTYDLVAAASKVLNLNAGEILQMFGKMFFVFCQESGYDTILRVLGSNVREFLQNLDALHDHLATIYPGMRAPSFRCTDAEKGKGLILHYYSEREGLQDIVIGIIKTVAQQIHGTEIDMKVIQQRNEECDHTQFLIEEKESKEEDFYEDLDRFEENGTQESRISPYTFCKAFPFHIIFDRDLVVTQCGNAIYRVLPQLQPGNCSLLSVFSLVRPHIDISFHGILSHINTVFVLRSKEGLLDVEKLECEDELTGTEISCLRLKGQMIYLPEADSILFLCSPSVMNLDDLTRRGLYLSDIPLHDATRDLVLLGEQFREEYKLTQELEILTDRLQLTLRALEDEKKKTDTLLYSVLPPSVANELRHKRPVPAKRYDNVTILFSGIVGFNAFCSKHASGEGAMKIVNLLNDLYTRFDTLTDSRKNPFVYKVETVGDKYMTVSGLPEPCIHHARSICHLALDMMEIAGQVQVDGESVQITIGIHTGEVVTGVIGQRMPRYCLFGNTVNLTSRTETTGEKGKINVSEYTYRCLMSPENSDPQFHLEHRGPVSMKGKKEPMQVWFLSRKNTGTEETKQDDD
Put plainly: Cell-based sGC Functional Assay (CASA Assay), cGMP generation. Conditions: CHO-K1/sGC cells, 1 hr at 37° C., cGMP by HTRF, 4P fit; presence or absence of 1 μM DETA-NO not given; read-out: IP (nM) (inflection point). In a few lines: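 CHO-K1 cells stably expressing human sGC α1/β1 (4×10^5/mL, 0.5 mM IBMX) were treated with compounds (2.5% DMSO final) ± 1 μM DETA-NO for 1 hr at 37° C. Intracellular cGMP measured by HTRF. Activity expressed as % of Compound A maximal cGMP; IP and maximum fold induction from 4P fit.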

`CC1(c2ccccn2)C(=O)Nc2nc(-c3cn4ncnc4c(CCCC(F)(F)F)n3)nc(O)c21` (stereo not shown) [Example 145B, 4-hydroxy-5-methyl-5-(pyridin-2-yl)-2-(8-(4,4,4-trifluorobutyl)-[1,2,4]triazolo[1,5-a]pyrazin-6-yl)-5H-pyrrolo[2,3-d]pyrimidin-6(7H)-one]: the EC50 was 1220 nM.
`Nc1nc(-c2cn3ncnc3c(CCC(F)(F)C(F)(F)F)n2)nc2c1C(c1ccc(F)c(F)c1)(C1CC1)C(=O)N2` (stereo not shown) [Example 6A, 4-amino-5-cyclopropyl-5-(3,4-difluorophenyl)-2-(8-(3,3,4,4,4-pentafluorobutyl)-[1,2,4]triazolo[1,5-a]pyrazin-6-yl)-5H-pyrrolo[2,3-d]pyrimidin-6(7H)-one]: the EC50 was 27 nM.
For `CCCCc1nc(-c2nc(N)c3c(n2)NC(=O)C3(c2ccccn2)C2CC2)cn2ncnc12` (stereo not shown) [Example 116A, 4-amino-2-(8-butyl-[1,2,4]triazolo[1,5-a]pyrazin-6-yl)-5-cyclopropyl-5-(pyridin-2-yl)-5H-pyrrolo[2,3-d]pyrimidin-6(7H)-one], the EC50 was determined as 19.7 nM.
Consider `CCCCc1nc(-c2nc(N)c3c(n2)NC(=O)C3(c2ccc(F)c(F)c2)C2CC2)cn2ncnc12` (stereo not shown) [Example 65A, 4-amino-2-(8-butyl-[1,2,4]triazolo[1,5-a]pyrazin-6-yl)-5-cyclopropyl-5-(3,4-difluorophenyl)-5H-pyrrolo[2,3-d]pyrimidin-6(7H)-one], for which the EC50 is 2.6 nM.
Then `Nc1nc(-c2cn3ncnc3c(CCCC(F)(F)F)n2)nc2c1C(c1ncc(C(F)(F)F)cn1)(C1CC1)C(=O)N2` (single isomer, unassigned) [Example 180B, 4-amino-5-cyclopropyl-2-(8-(4,4,4-trifluorobutyl)-[1,2,4]triazolo[1,5-a]pyrazin-6-yl)-5-(5-(trifluoromethyl)pyrimidin-2-yl)-5,7-dihydro-6H-pyrrolo[2,3-d]pyrimidin-6-one], with 488 nM.
For the molecule `O=C1Nc2nc(-c3cn4ncnc4c(CCCC(F)(F)F)n3)nc(O)c2C1(c1ccc(Cl)cc1)C1CC1` (stereo not shown) [Example 140B, 5-(4-chlorophenyl)-5-cyclopropyl-4-hydroxy-2-(8-(4,4,4-trifluorobutyl)-[1,2,4]triazolo[1,5-a]pyrazin-6-yl)-5H-pyrrolo[2,3-d]pyrimidin-6(7H)-one], the EC50 was determined as 277 nM.
For `CCCc1nc(-c2nc(N)c3c(n2)NC(=O)C3(C)c2ccc(Cl)cc2)cn2ncnc12` (stereo not shown) [Example 53A, 4-amino-5-(4-chlorophenyl)-5-methyl-2-(8-propyl-[1,2,4]triazolo[1,5-a]pyrazin-6-yl)-5H-pyrrolo[2,3-d]pyrimidin-6(7H)-one], the EC50 is 26.9 nM.
On to `Nc1nc(-c2cn3ncnc3c(CCCC(F)(F)F)n2)nc2c1C(c1ccc(Cl)cn1)(C1CC1)C(=O)N2` (stereo not shown) [Example 27A, 4-amino-5-(5-chloropyridin-2-yl)-5-cyclopropyl-2-(8-(4,4,4-trifluorobutyl)-[1,2,4]triazolo[1,5-a]pyrazin-6-yl)-5H-pyrrolo[2,3-d]pyrimidin-6(7H)-one], for which the EC50 worked out at 278 nM.
As for `Cc1nc2c(CCC(F)(F)C(F)(F)F)nc(-c3nc(O)c4c(n3)NC(=O)C4(C)c3ccc(Cl)c(F)c3)cn2n1` (stereo not shown) [Example 132B, 5-(4-chloro-3-fluorophenyl)-4-hydroxy-5-methyl-2-(2-methyl-8-(3,3,4,4,4-pentafluorobutyl)-[1,2,4]triazolo[1,5-a]pyrazin-6-yl)-5H-pyrrolo[2,3-d]pyrimidin-6(7H)-one], the EC50 stood at 442 nM.
For the molecule `CC1(c2ccccc2)C(=O)Nc2nc(-c3cn4ncnc4c(CCCC(F)(F)F)n3)nc(N)c21` (stereo not shown) [Example 37B, 4-amino-5-methyl-5-phenyl-2-(8-(4,4,4-trifluorobutyl)-[1,2,4]triazolo[1,5-a]pyrazin-6-yl)-5H-pyrrolo[2,3-d]pyrimidin-6(7H)-one], the EC50 came out at 11.5 nM.
